The values below come from patent US20100254996A1, “SYNERGISTIC TREATMENT OF CELLS THAT EXPRESS EPHA2 AND ERBB2” (MEDIMMUNE, LLC, priority 2007, published 2010).

The test concerns the target T1, ErbB2 (Homo sapiens, UniProt P04626).
T1 construct: expressed in transfected cells; host or cells: MCF10A human mammary epithelial cells stably expressing HER2 (MCF10A.HER2; Ueda et al., 2004)
As to the kind of experiment: EphA2 and ErbB2 phosphorylation in MCF10A cells overexpressing HER2 after ErbB2 kinase inhibitor (immunoprecipitation/immunoblot). In kind it is cell-based. The following applies: 10 mg/ml AG825 for 24 or 48 hours. How it is done:
For Ras and Rho/Rac pulldown assays, tumor tissue was collected, weighed, mechanically homogenized in phosphate buffered saline (PBS) pelleted, and resuspended in manufacturer recommended assay buffer (Upstate Biotechnology). Approximately […] tumor lysate was used per assay. Ras assays were performed using Raf-1 Ras binding domain-GST assay reagent (Upstate Biotechnology) as per manufacturer's protocol. Rho assays were performed using Rhotekin binding domain-GST reagents as previously described (Fang et al., 2005). For some co-immunoprecipitation assays, COST cells were co-transfected with […] each of myc-tagged erbB2 (pcDNA3-erbB2) and ephA2 (pcDNA3-EphA2) using Lipofectamine 2000 (Invitrogen). Cells were lysed in 1% NP-40 Buffer (10 mM Tris-HCl pH 7.5, 150 mM NaCl, 2 mM EDTA, 1% NP-40 plus 50 mM protease inhibitors). Lysates were used for immunoprecipitation with an anti-myc (Sigma-Aldrich) and anti-EphA2 antibodies (Santa Cruz, sc-924) antibodies. Immune complexes were resolved on SDS-PAGE and western blotted using anti-EphA2 and anti-myc antibodies. EphA2 was immunoprecipitated from MMTV-Neu cells, followed by treatment of half the samples with the 1 mM of the cross-linking agent DTSSP. Immunoprecipitates were subjected to western blot analysis using anti-ErbB2 (Neomarkers, 1:2000). EphA2 and ErbB2 were immunoprecipiated from MCF10A and MCF10A.HER2 cells as described above. […]
In general terms: Immunoblotting shows a protein as a band on a membrane.

SMILES strings stand for the structures.

T1 sequence (P04626 23-1255): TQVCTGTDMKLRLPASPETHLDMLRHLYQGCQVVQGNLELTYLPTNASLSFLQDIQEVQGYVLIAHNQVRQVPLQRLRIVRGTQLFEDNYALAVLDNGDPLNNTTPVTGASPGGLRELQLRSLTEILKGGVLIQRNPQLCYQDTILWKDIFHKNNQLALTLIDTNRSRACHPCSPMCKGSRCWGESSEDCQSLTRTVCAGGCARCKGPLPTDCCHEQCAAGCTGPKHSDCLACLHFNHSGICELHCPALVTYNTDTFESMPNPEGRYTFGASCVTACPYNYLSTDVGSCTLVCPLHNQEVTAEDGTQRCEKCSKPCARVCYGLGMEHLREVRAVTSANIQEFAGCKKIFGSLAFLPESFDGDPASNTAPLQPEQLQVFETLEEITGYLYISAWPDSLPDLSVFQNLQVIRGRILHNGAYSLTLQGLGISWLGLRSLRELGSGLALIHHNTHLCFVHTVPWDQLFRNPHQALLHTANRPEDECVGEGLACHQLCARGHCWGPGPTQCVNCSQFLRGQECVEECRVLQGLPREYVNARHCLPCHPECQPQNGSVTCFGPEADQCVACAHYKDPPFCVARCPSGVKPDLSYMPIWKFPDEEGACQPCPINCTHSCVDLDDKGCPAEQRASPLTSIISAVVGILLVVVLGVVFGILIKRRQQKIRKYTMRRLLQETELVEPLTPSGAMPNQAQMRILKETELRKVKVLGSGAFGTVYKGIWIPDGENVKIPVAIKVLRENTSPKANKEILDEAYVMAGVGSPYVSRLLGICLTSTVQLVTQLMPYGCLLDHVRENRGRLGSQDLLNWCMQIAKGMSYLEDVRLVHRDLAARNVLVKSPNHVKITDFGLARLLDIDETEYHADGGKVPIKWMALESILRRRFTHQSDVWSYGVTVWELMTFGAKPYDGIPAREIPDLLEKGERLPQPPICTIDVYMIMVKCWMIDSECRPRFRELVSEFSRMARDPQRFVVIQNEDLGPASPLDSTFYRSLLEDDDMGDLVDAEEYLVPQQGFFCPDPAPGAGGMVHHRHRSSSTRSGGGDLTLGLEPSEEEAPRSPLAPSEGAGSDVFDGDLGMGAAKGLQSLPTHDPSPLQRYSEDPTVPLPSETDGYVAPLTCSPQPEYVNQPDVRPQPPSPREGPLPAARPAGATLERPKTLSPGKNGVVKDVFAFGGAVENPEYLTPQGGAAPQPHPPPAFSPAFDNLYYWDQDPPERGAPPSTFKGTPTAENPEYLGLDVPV

As for `COc1cc(/C=C(\C#N)C(N)=O)cc(CSc2nc3ccccc3s2)c1O` [AG825], the EphA2 phosphorylation result was “reduced” and the ErbB2 phosphorylation result was “reduced”.
